Assay results from ChEMBL document CHEMBL6178018, “Design of an Oral STING Agonist through Intramolecular Hydrogen Bond Ring Mimicking to Achieve Complete Tumor Regression” (J Med Chem, 2025).
Calls of active or inactive are those of the source. No cut-off for these calls is given here.

What was measured:
[1] = biological target: T1, Stimulator of interferon genes protein (Homo sapiens, UniProt Q86WV6); experiment: Agonist activity at human STING HAQ variant in human THP1-Blue ISG cells assessed as fold change in stimulation activity measured after 24 hrs incubation by QUANTI-Blue based microplate reader; assay type: cell-based
[2] = biological target: T1, Stimulator of interferon genes protein; experiment: Agonist activity at STING R232 mutant (unknown origin) expressed in human THP1-Dual cells assessed as fold change in stimulation activity measured after 24 hrs incubation by QUANTI-Luc4 based microplate reader; assay type: cell-based
[3] = biological target: T2, Stimulator of interferon genes protein (Mus musculus, UniProt Q3TBT3); experiment: Agonist activity at mouse STING expressed in human THP1-Dual cells assessed as fold change in stimulation activity measured after 24 hrs incubation by QUANTI-Luc4 based microplate reader; assay type: cell-based
T2 sequence (Q3TBT3 whole entry): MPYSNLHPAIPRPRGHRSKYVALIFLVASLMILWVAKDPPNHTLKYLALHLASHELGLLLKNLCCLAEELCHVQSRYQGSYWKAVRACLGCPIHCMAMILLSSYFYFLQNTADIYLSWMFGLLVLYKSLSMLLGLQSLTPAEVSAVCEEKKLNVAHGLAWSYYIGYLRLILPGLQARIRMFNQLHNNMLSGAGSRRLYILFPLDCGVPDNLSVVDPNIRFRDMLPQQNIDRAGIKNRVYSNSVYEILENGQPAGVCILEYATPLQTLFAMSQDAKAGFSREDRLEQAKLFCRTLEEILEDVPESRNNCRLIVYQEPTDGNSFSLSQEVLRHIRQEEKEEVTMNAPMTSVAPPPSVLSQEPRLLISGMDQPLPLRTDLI

THP-1 [4] = experiment: Induction of interferon response in STING knock out human THP-1 cells assessed as fold change in stimulation activity at 13 to 25 uM measured after 24 hrs incubation by QUANTI-Luc4 based microplate reader; assay type: functional, cell-based; settings: dose 13-25 µM
THP-1 [5] = experiment: Induction of interferon secretion in human THP-1 cells assessed as IFN-beta level at 13 uM measured after 24 hrs by ELISA; assay type: functional, cell-based
THP1-Blue ISG = experiment: Induction of STING phosphorylation in human THP1-Blue ISG cells at 13 to 50 uM measured after 3 hrs by Western blot analysis; assay type: cell-based; settings: filed as agonist, dose 13-50 µM
[6] = biological target: T3, Interferon regulatory factor 3 (Homo sapiens) (UniProt Q14653); experiment: Induction of IRF3 phosphorylation in human THP1-Blue ISG cells at 13 to 50 uM measured after 3 hrs by Western blot analysis; assay type: cell-based; settings: filed as agonist, dose 13-50 µM
T3 sequence (whole entry): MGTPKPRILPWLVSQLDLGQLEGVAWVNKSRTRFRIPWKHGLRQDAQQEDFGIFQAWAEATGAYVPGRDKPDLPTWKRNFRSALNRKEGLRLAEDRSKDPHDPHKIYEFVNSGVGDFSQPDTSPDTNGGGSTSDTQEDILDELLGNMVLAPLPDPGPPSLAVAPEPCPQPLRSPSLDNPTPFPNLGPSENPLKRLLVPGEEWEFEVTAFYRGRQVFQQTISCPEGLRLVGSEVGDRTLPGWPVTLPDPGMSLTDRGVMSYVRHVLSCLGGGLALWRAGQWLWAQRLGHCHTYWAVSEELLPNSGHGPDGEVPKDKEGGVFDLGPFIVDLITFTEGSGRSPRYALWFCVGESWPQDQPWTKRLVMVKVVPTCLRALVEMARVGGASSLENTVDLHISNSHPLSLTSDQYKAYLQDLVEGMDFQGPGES

MC-38 [7] = experiment: In vivo antitumor activity against mouse MC-38 cells inoculated in C57BL/6 mouse assessed as complete tumor regression (CR) at 60 mg/kg, po Q3D co-administered with anti-PD1 measured for 15 to 20 days; assay type: functional; settings: time 15-20 day
MC-38 [8] = experiment: In vivo antitumor activity against mouse MC-38 cells inoculated in C57BL/6 mouse assessed as increase in moue survival time at 60 mg/kg, po Q3D co-administered with anti-PD1 measured for 15 to 20 days; assay type: functional, organism-based; settings: time 15-20 day
MC-38 [9] = experiment: In vivo antitumor activity against mouse MC-38 cells inoculated in C57BL/6 mouse assessed as complete tumor regression (CR) at 60 mg/kg, po Q3D measured for 15 to 20 days; assay type: functional, organism-based; settings: time 15-20 day
MC-38 [10] = experiment: In vivo antitumor activity against mouse MC-38 cells inoculated in C57BL/6 mouse assessed as as increase in moue survival time at 60 mg/kg, po Q3D measured for 15 to 20 days; assay type: functional, organism-based; settings: time 15-20 day
MC-38 [11] = experiment: In vivo antitumor activity against mouse MC-38 cells inoculated in C57BL/6 mouse assessed as long-term immunological memory by measuring tumor recurrence at 60 mg/kg, po Q3D measured for 15 to 20 days followed by cured rechallenged with MC-38 cells after 84 days of first dose and measured for additional 74 days (total 157 days observation); assay type: functional, organism-based; settings: time 157.0 day
MC-38 [12] = experiment: In vivo antitumor activity against mouse MC-38 cells inoculated in C57BL/6 mouse assessed as complete tumor regression (CR) at 60 mg/kg, po two doses measured for 15 to 20 days relative to total number of mouse; assay type: functional; settings: time 15-20 day
MC-38 [13] = experiment: In vivo antitumor activity against mouse MC-38 cells inoculated in C57BL/6 mouse assessed as increase in IFN-gamma level in tumor at 60 mg/kg, po Q3D co-administered with anti-PD1 measured for 15 to 20 days; assay type: functional, organism-based; settings: time 15-20 day
MC-38 [14] = experiment: In vivo antitumor activity against mouse MC-38 cells inoculated in C57BL/6 mouse assessed as increase in IL-6 level in tumor at 60 mg/kg, po Q3D co-administered with anti-PD1 measured for 15 to 20 days; assay type: functional, organism-based; settings: time 15-20 day
MC-38 [15] = experiment: In vivo antitumor activity against mouse MC-38 cells inoculated in C57BL/6 mouse assessed as increase in CXCL10 level in tumor at 60 mg/kg, po Q3D co-administered with anti-PD1 measured for 15 to 20 days; assay type: functional, organism-based; settings: time 15-20 day
MC-38 [16] = experiment: In vivo antitumor activity against mouse MC-38 cells inoculated in C57BL/6 mouse assessed as increase in IFN-gamma level in serum at 60 mg/kg, po Q3D co-administered with anti-PD1 measured for 15 to 20 days; assay type: functional, organism-based; settings: time 15-20 day
MC-38 [17] = experiment: In vivo antitumor activity against mouse MC-38 cells inoculated in C57BL/6 mouse assessed as increase in IL-6 level in serum at 60 mg/kg, po Q3D co-administered with anti-PD1 measured for 15 to 20 days; assay type: functional, organism-based; settings: time 15-20 day
MC-38 [18] = experiment: In vivo antitumor activity against mouse MC-38 cells inoculated in C57BL/6 mouse assessed as increase in CXCL10 level in serum at 60 mg/kg, po Q3D co-administered with anti-PD1 measured for 15 to 20 days; assay type: functional, organism-based; settings: time 15-20 day
[19] = Metabolic stability in mouse liver microsomes assessed as half life at 10 uM measured up to 60 mins by LC-MS/MS analysis; assay type: ADME, Microsome
[20] = Metabolic stability in human liver microsomes assessed as half life at 10 uM measured up to 60 mins by LC-MS/MS analysis; assay type: ADME, Microsome
[21] = Stability of the compound in human plasma assessed as half life by LC-MS/MS analysis; assay type: ADME, cell-free
[22] = Stability of the compound in mouse plasma assessed as half life by LC-MS/MS analysis; assay type: ADME, cell-free
[23] = Chemical stability of the compound in MeOH/H2O solvent assessed as half life by LC-MS/MS analysis; assay type: physicochemical
[24] = Cmax in mouse at 10 mg/kg, po by LC-MS/MS analysis; assay type: ADME, organism-based; settings: in vivo
[25] = Half life in mouse at 10 mg/kg, po by LC-MS/MS analysis; assay type: ADME, organism-based; settings: in vivo
[26] = Clearance in mouse at 10 mg/kg, po by LC-MS/MS analysis; assay type: ADME, organism-based; settings: in vivo
[27] = AUC in mouse at 10 mg/kg, po by LC-MS/MS analysis; assay type: ADME, organism-based; settings: in vivo
[28] = Oral bioavailability in mouse at 10 mg/kg by LC-MS/MS analysis; assay type: ADME, organism-based; settings: in vivo
[29] = Cmax in mouse at 5 mg/kg, iv by LC-MS/MS analysis; assay type: ADME, organism-based; settings: in vivo
[30] = Half life in mouse at 5 mg/kg, iv by LC-MS/MS analysis; assay type: ADME, organism-based; settings: in vivo
[31] = Clearance in mouse at 5 mg/kg, iv by LC-MS/MS analysis; assay type: ADME, organism-based; settings: in vivo
[32] = AUC in mouse at 5 mg/kg, iv by LC-MS/MS analysis; assay type: ADME, organism-based; settings: in vivo

T1 sequence (Q86WV6 whole entry, looked up, change not shown): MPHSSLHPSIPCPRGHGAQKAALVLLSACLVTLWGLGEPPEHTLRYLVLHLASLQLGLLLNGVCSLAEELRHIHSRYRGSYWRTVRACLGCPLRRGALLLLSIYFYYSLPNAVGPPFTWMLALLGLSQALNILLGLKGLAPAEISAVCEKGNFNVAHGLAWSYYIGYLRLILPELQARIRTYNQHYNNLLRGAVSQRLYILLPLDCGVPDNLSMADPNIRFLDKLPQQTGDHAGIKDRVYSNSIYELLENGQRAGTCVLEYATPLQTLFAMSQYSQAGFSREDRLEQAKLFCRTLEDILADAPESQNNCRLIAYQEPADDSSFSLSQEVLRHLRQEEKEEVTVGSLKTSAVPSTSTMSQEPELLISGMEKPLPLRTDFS

CC[C@H](CNC(=O)c1[se]c2cc(OC)c(OC)cc2c1F)C(=O)O
EC50 [1]: 3.3 µM
EC50 [2]: 9 µM
EC50 [3]: 9.3 µM
Activity (THP-1 [4]): inactive
Activity (THP-1 [5]): Active
Activity (THP1-Blue ISG): Active
Activity [6]: Active
Activity (MC-38 [7]): Active; Compound Effect Significantly Exceeded Than Its Parent Compound Zsa-52 (Cr = 60%)
Activity (MC-38 [8]): Active
Activity (MC-38 [9]): Active
Activity (MC-38 [10]): Active
Activity (MC-38 [11]): Active
Activity (MC-38 [12]): 60%
Activity (MC-38 [13]): Active
Activity (MC-38 [14]): Active
Activity (MC-38 [15]): Active
Activity (MC-38 [16]): Active
Activity (MC-38 [17]): Active
Activity (MC-38 [18]): Active
half-life at 10 µM [19]: > 1 h
half-life at 10 µM [20]: > 1 h
half-life [21]: > 1 h
half-life [22]: > 1 h
half-life [23]: 0.8 h
Cmax [24]: 20600 ng/mL
half-life [25]: 1.1 h
CL/F [26]: 6.94 mL/min/kg
AUC [27]: 23800 ng·h/mL
bioavailability [28]: 58%
Cmax [29]: 48400 ng/mL
half-life [30]: 0.6 h
clearance [31]: 4.04 mL/min/kg
AUC [32]: 20600 ng·h/mL
